One data set concerns Collagen biosynthesis. The experiment in a line: Collagen biosynthesis inhibiting activity (collagen content of the uterus). The format is in vivo, rats of SD strain. As to conditions: female SD rats; for Collagen content of uterus / Body weight of rats: groups of 3; for Collagen content of uterus: control 1.64 ± 0.3; for Body weight of rats: control 73 ± 6. On the procedure:
(2) Collagen biosynthesis inhibiting activity
Basically in accordance with the method of R. A. Salvador et al. [Arch. Biochem. Biophys. 174, 382 (1976)], 0.2 mg/kg of each test compound was intraperitoneally administered to rats of SD strain (.female., 3 weeks old) once daily for 6 consecutive days and the collagen content of the uterus was compared with the control value.
*Rats were used in groups of 3. Initial body weights = 41 ± 2 ~

The target of data set [1] is T1, Protocollagen proline hydroxylase (Gallus gallus, UniProt P16924).
T1 construct: partially purified enzyme preparation derived from chick embryos; from tissue; host or cells: chick embryos
T1 sequence (P16924 1-516): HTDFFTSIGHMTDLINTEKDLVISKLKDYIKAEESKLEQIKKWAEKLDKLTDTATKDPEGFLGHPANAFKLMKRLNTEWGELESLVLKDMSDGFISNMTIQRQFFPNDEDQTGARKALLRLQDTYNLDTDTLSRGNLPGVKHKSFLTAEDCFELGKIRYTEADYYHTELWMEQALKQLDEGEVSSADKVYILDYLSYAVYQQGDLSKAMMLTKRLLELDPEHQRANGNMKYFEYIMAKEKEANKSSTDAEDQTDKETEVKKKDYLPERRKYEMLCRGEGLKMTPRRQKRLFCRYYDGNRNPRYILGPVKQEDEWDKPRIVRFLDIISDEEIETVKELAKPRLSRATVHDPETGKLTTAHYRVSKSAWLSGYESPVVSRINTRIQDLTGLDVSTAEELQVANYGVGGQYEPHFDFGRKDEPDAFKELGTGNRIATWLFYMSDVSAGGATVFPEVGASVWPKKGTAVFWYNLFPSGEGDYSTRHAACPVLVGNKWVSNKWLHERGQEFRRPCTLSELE
T1 sequence (P09102 23-515 partner): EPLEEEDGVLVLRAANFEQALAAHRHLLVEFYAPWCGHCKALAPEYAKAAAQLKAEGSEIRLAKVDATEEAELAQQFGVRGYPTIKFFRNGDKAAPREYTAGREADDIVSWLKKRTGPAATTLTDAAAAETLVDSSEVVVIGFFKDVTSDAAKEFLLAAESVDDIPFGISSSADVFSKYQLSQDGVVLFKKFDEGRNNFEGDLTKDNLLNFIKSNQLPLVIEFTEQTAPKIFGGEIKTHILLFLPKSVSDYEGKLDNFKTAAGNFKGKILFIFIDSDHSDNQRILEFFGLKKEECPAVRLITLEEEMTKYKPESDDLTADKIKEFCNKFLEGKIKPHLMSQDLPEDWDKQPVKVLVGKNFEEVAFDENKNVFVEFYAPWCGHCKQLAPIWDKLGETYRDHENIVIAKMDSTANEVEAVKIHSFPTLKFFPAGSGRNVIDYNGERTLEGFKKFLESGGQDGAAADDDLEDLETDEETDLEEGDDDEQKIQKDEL
The experiment in a line: Protocollagen proline hydroxylase-inhibiting activity. It counts as biochemical. The following applies: partially purified chick embryo enzyme, 100 μg as protein, substrate (Pro-Pro-Gly)5.4H2O; for inhibition at 20 µM: Concentration 20 μM. On the procedure: (1) Protocollagen proline hydroxylase-inhibiting activity
This inhibitory activity was assayed by the procedure of R. E. Rhoads et al. (Methods in Enzymology XVII B, 306 (1971)) using a partially purified enzyme preparation derived from chick embryos in accordance with the methods of K. I. Kivirriko et al. and J. Halme et al. (J. Biol. Chem. 242, 4007 (1967) and Biochem. Biophys. Acta 198, 460 (1967), and, as a substrate, (Pro-Pro-Gly)5.4H2 O (Protein Research Foundation, Osaka). In this assay, the partially purified enzyme preparation was used in the amount of 100 μg as protein. The results are shown in Table 1.

Data set [2] is described as follows: Toxicity, gastric gavage to rats in a 5-week regimen. The format is in vivo. The following applies: 2500 mg/kg/day. An excerpt: The compound (I) is very low in toxicity.
The mark [3] stands for this setting: 17β-Estradiol alone, 0.2 mg/kg intraperitoneally once daily for 6 consecutive days.
Where [4] appears, read: given with 17β-Estradiol, 0.2 mg/kg of each test compound intraperitoneally once daily for 6 consecutive days.

These results are taken from patent US4514420A, “Antifibrotic agent” (Takeda Chemical Industries, Ltd., priority 1982, dated 1985).

Turning to `C[C@]12CC[C@@H]3c4ccc(O)cc4CC[C@H]3[C@@H]1CC[C@@H]2O` [17β-Estradiol, reference compound], in the data set with Collagen biosynthesis (setting [3]), the “Collagen content of uterus” value stood at 3.45 ± 0.11 and the “Body weight of rats” value stood at 73 ± 3 g.

In general, inhibition refers to how much of the control response was suppressed. Low values mean a weak effect, high ones a strong effect. Turning to `COC1=C(OC)C(=O)C(CCCCO)=C(C)C1=O` [A:CH2 n:3 R:H], the inhibition at 25 µM in data set [1] (Concentration 25 μM) came to 68%.

In the case of `COC1=C(OC)C(=O)C(CCCCCCCCCCO)=C(C)C1=O` [A:CH2 n:9 R:H, 2,3-dimethoxy-5-methyl-6-(10'-hydroxydecyl)-1,4-benzoquinone], in the data set with Collagen biosynthesis (setting [4]), the “Collagen content of uterus” value worked out at 2.94 ± 0.28 and the “Body weight of rats” value is recorded as 69 ± 6 g. Further, the Degree of inhibition in the data set with Collagen biosynthesis (given with 17β-Estradiol, 0.2 mg/kg of each test compound intraperitoneally once daily for 6 consecutive days, formula in footnote ** (drawing 3)) was found to be 28. Moreover, the inhibition at 20 µM in data set [1] amounted to 37%. Besides, in data set [2], the “Abnormalities in body weight, food intake, urinalysis and blood tests” value was “no abnormalities in body weight, food intake, urinalysis and blood tests”.

In data set [1] (Concentration 50 μM), `COC(=O)CCCC1=C(C)C(=O)C(OC)=C(OC)C1=O` [A:CO n:3 R:CH3] had an inhibition at 50 µM of 47%.

Consider `COC1=C(OC)C(=O)C(CCCC(=O)O)=C(C)C1=O` [A:CO n:3 R:H], for which 20 µM produced 57% inhibition in data set [1].

On to `COC1=C(OC)C(=O)C(CCCCCCCC(=O)O)=C(C)C1=O` [A:CO n:7 R:H], for which the inhibition at 20 µM in data set [1] was found to be 35%.

`COC(=O)CCCCCCCCCC1=C(C)C(=O)C(OC)=C(OC)C1=O` [A:CO n:9 R:CH3] yielded an inhibition at 20 µM in data set [1] of 21%.

The compound `COC1=C(OC)C(=O)C(CCCCCCCCCC(=O)O)=C(C)C1=O` [A:CO n:9 R:H] had an inhibition at 20 µM in data set [1] of 31%.
